# ChEMBL document CHEMBL1201861, “Genomics of Drug Sensitity in Cancer screening data, Wellcome Trust Sanger Institute”
# System: COLO-741
# Assay: cells
# Assay type: functional, cell-based
# Details: Homo sapiens
# Description: SANGER: Inhibition of human COLO-741 cell growth in a cell viability assay.
row,Compound,IC50
1,CS(=O)(=O)N1CCN(Cc2cc3nc(-c4cccc5[nH]ncc45)nc(N4CCOCC4)c3s2)CC1 [PICTILISIB],> 4 µM

# System: COR-L23;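 note: cell viability assay measuring how strongly compounds suppress growth of COR-L23 cells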
# Assay: cells
# Assay type: functional, cell-based
# Details: Homo sapiens
# Description: SANGER: Inhibition of human COR-L23 cell growth in a cell viability assay.
row,Compound,IC50
1,CS(=O)(=O)N1CCN(Cc2cc3nc(-c4cccc5[nH]ncc45)nc(N4CCOCC4)c3s2)CC1 [PICTILISIB],3.37 µM

# System: D-392MG
# Assay: cells
# Assay type: functional, cell-based
# Details: Homo sapiens
row,Compound,IC50
1,CS(=O)(=O)N1CCN(Cc2cc3nc(-c4cccc5[nH]ncc45)nc(N4CCOCC4)c3s2)CC1 [PICTILISIB],> 4 µM

# System: Detroit 562;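 note: growth inhibition of human Detroit 562 cells, read out by a cell viability assay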
# Assay: cells
# Assay type: functional, cell-based
# Details: Homo sapiens
# Description: SANGER: Inhibition of human Detroit562 cell growth in a cell viability assay.
row,Compound,IC50
1,CS(=O)(=O)N1CCN(Cc2cc3nc(-c4cccc5[nH]ncc45)nc(N4CCOCC4)c3s2)CC1 [PICTILISIB],> 4 µM

# System: EFO-21;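 note: growth inhibition of EFO-21 cells measured with a viability assay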
# Assay: cells
# Assay type: functional, cell-based
# Details: Homo sapiens
# Description: SANGER: Inhibition of human EFO-21 cell growth in a cell viability assay.
row,Compound,IC50
1,CS(=O)(=O)N1CCN(Cc2cc3nc(-c4cccc5[nH]ncc45)nc(N4CCOCC4)c3s2)CC1 [PICTILISIB],> 4 µM

# System: LCLC-97TM1;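 note: cell viability assay measuring growth inhibition of human LCLC-97TM1 cells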
# Assay: cells
# Assay type: functional, cell-based
# Details: Homo sapiens
# Description: SANGER: Inhibition of human LCLC-97TM1 cell growth in a cell viability assay.
row,Compound,IC50
1,CS(=O)(=O)N1CCN(Cc2cc3nc(-c4cccc5[nH]ncc45)nc(N4CCOCC4)c3s2)CC1 [PICTILISIB],2.69 µM

# System: LU-135
# Assay: cells
# Assay type: functional, cell-based
# Details: Homo sapiens
# Description: SANGER: Inhibition of human LU-135 cell growth in a cell viability assay.
row,Compound,IC50
1,CS(=O)(=O)N1CCN(Cc2cc3nc(-c4cccc5[nH]ncc45)nc(N4CCOCC4)c3s2)CC1 [PICTILISIB],> 4 µM

# System: LoVo;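 note: growth inhibition of human LoVo cells, read out with a cell viability assay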
# Assay: cells
# Assay type: functional, cell-based
# Details: Homo sapiens
# Description: SANGER: Inhibition of human LoVo cell growth in a cell viability assay.
row,Compound,IC50
1,CS(=O)(=O)N1CCN(Cc2cc3nc(-c4cccc5[nH]ncc45)nc(N4CCOCC4)c3s2)CC1 [PICTILISIB],0.778 µM

# System: MCF7;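 note: growth inhibition of human MCF7 cells, read out with a cell viability assay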
# Assay: cells
# Assay type: functional, cell-based
# Details: Homo sapiens
# Description: SANGER: Inhibition of human MCF7 cell growth in a cell viability assay.
row,Compound,IC50
1,CS(=O)(=O)N1CCN(Cc2cc3nc(-c4cccc5[nH]ncc45)nc(N4CCOCC4)c3s2)CC1 [PICTILISIB],0.899 µM

# System: NB12;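 note: growth inhibition of human NB12 cells, read out by a cell viability assay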
# Assay: cells
# Assay type: functional, cell-based
# Details: Homo sapiens
# Description: SANGER: Inhibition of human NB12 cell growth in a cell viability assay.
row,Compound,IC50
1,CS(=O)(=O)N1CCN(Cc2cc3nc(-c4cccc5[nH]ncc45)nc(N4CCOCC4)c3s2)CC1 [PICTILISIB],2.85 µM

# System: NBsusSR;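 note: growth inhibition of the human cell line, read out with a cell viability assay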
# Assay: cells
# Assay type: functional, cell-based
# Details: Homo sapiens
# Description: SANGER: Inhibition of human NBsusSR cell growth in a cell viability assay.
row,Compound,IC50
1,CS(=O)(=O)N1CCN(Cc2cc3nc(-c4cccc5[nH]ncc45)nc(N4CCOCC4)c3s2)CC1 [PICTILISIB],0.489 µM

# System: NCI-H1666;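 note: growth inhibition of the cell line, read out with a cell viability assay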
# Assay: cells
# Assay type: functional, cell-based
# Details: Homo sapiens
# Description: SANGER: Inhibition of human NCI-H1666 cell growth in a cell viability assay.
row,Compound,IC50
1,CS(=O)(=O)N1CCN(Cc2cc3nc(-c4cccc5[nH]ncc45)nc(N4CCOCC4)c3s2)CC1 [PICTILISIB],2.51 µM

# System: NCI-H1693;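 note: growth inhibition of the human cell line, read out with a cell viability assay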
# Assay: cells
# Assay type: functional, cell-based
# Details: Homo sapiens
# Description: SANGER: Inhibition of human NCI-H1693 cell growth in a cell viability assay.
row,Compound,IC50
1,CS(=O)(=O)N1CCN(Cc2cc3nc(-c4cccc5[nH]ncc45)nc(N4CCOCC4)c3s2)CC1 [PICTILISIB],> 4 µM

# System: NCI-H1792;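 note: growth inhibition of human NCI-H1792 cells, read out as cell viability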
# Assay: cells
# Assay type: functional, cell-based
# Details: Homo sapiens
# Description: SANGER: Inhibition of human NCI-H1792 cell growth in a cell viability assay.
row,Compound,IC50
1,CS(=O)(=O)N1CCN(Cc2cc3nc(-c4cccc5[nH]ncc45)nc(N4CCOCC4)c3s2)CC1 [PICTILISIB],> 4 µM

# System: NCI-H2291
# Assay: cells
# Assay type: functional, cell-based
# Details: Homo sapiens
# Description: SANGER: Inhibition of human NCI-H2291 cell growth in a cell viability assay.
row,Compound,IC50
1,CS(=O)(=O)N1CCN(Cc2cc3nc(-c4cccc5[nH]ncc45)nc(N4CCOCC4)c3s2)CC1 [PICTILISIB],> 4 µM

# System: NCI-H358;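 note: growth inhibition of NCI-H358 human cells, read out with a cell viability assay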
# Assay: cells
# Assay type: functional, cell-based
# Details: Homo sapiens
# Description: SANGER: Inhibition of human NCI-H358 cell growth in a cell viability assay.
row,Compound,IC50
1,CS(=O)(=O)N1CCN(Cc2cc3nc(-c4cccc5[nH]ncc45)nc(N4CCOCC4)c3s2)CC1 [PICTILISIB],> 4 µM

# System: NCI-H727;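 note: growth inhibition of human NCI-H727 cells, read out with a cell viability assay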
# Assay: cells
# Assay type: functional, cell-based
# Details: Homo sapiens
# Description: SANGER: Inhibition of human NCI-H727 cell growth in a cell viability assay.
row,Compound,IC50
1,CS(=O)(=O)N1CCN(Cc2cc3nc(-c4cccc5[nH]ncc45)nc(N4CCOCC4)c3s2)CC1 [PICTILISIB],> 4 µM

# System: OAW-42;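 note: growth inhibition of OAW-42 cells, read out with a cell viability assay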
# Assay: cells
# Assay type: functional, cell-based
# Details: Homo sapiens
# Description: SANGER: Inhibition of human OAW-42 cell growth in a cell viability assay.
row,Compound,IC50
1,CS(=O)(=O)N1CCN(Cc2cc3nc(-c4cccc5[nH]ncc45)nc(N4CCOCC4)c3s2)CC1 [PICTILISIB],0.872 µM

# System: OVCAR-3;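 note: growth inhibition of human OVCAR-3 cells, determined by a cell viability assay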
# Assay: cells
# Assay type: functional, cell-based
# Details: Homo sapiens
# Description: SANGER: Inhibition of human OVCAR-3 cell growth in a cell viability assay.
row,Compound,IC50
1,CS(=O)(=O)N1CCN(Cc2cc3nc(-c4cccc5[nH]ncc45)nc(N4CCOCC4)c3s2)CC1 [PICTILISIB],> 4 µM

# System: PC-14;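 note: cell viability assay measuring inhibition of PC-14 cell growth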
# Assay: cells
# Assay type: functional, cell-based
# Details: Homo sapiens
# Description: SANGER: Inhibition of human PC-14 cell growth in a cell viability assay.
row,Compound,IC50
1,CS(=O)(=O)N1CCN(Cc2cc3nc(-c4cccc5[nH]ncc45)nc(N4CCOCC4)c3s2)CC1 [PICTILISIB],3.73 µM

# System: RERF-LC-MS;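 note: growth inhibition of human RERF-LC-MS cells, read out by a cell viability assay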
# Assay: cells
# Assay type: functional, cell-based
# Details: Homo sapiens
# Description: SANGER: Inhibition of human RERF-LC-MS cell growth in a cell viability assay.
row,Compound,IC50
1,CS(=O)(=O)N1CCN(Cc2cc3nc(-c4cccc5[nH]ncc45)nc(N4CCOCC4)c3s2)CC1 [PICTILISIB],> 4 µM

# System: RH-18;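 note: growth inhibition of human RH-18 cells, read out with a cell viability assay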
# Assay: cells
# Assay type: functional, cell-based
# Details: Homo sapiens, Rh18
# Description: SANGER: Inhibition of human RH-18 cell growth in a cell viability assay.
row,Compound,IC50
1,CS(=O)(=O)N1CCN(Cc2cc3nc(-c4cccc5[nH]ncc45)nc(N4CCOCC4)c3s2)CC1 [PICTILISIB],> 4 µM

# System: SCC-9;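 note: Read-out is a cell viability assay, with values giving inhibition of cell growth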
# Assay: cells
# Assay type: functional, cell-based
# Details: Homo sapiens
# Description: SANGER: Inhibition of human SCC-9 cell growth in a cell viability assay.
row,Compound,IC50
1,CS(=O)(=O)N1CCN(Cc2cc3nc(-c4cccc5[nH]ncc45)nc(N4CCOCC4)c3s2)CC1 [PICTILISIB],> 4 µM

# System: SK-MEL3;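 note: growth inhibition of human SK-MEL-3 cells, read out with a cell viability assay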
# Assay: cells
# Assay type: functional, cell-based, SK-MEL-3
# Details: Homo sapiens
# Description: SANGER: Inhibition of human SK-MEL-3 cell growth in a cell viability assay.
row,Compound,IC50
1,CS(=O)(=O)N1CCN(Cc2cc3nc(-c4cccc5[nH]ncc45)nc(N4CCOCC4)c3s2)CC1 [PICTILISIB],> 4 µM

# System: SNU-387
# Assay: cells
# Assay type: functional, cell-based
# Details: Homo sapiens
# Description: SANGER: Inhibition of human SNU-387 cell growth in a cell viability assay.
row,Compound,IC50
1,CS(=O)(=O)N1CCN(Cc2cc3nc(-c4cccc5[nH]ncc45)nc(N4CCOCC4)c3s2)CC1 [PICTILISIB],3.16 µM

# System: SW-620;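 note: growth inhibition of human SW-620 cells, measured by a cell viability assay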
# Assay: cells
# Assay type: functional, cell-based
# Details: Homo sapiens
# Description: SANGER: Inhibition of human SW620 cell growth in a cell viability assay.
row,Compound,IC50
1,CS(=O)(=O)N1CCN(Cc2cc3nc(-c4cccc5[nH]ncc45)nc(N4CCOCC4)c3s2)CC1 [PICTILISIB],> 4 µM

# System: SW837;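 note: growth inhibition of SW837 cells, determined with a cell viability assay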
# Assay: cells
# Assay type: functional, cell-based
# Details: Homo sapiens
# Description: SANGER: Inhibition of human SW837 cell growth in a cell viability assay.
row,Compound,IC50
1,CS(=O)(=O)N1CCN(Cc2cc3nc(-c4cccc5[nH]ncc45)nc(N4CCOCC4)c3s2)CC1 [PICTILISIB],> 4 µM

# System: TCC-SUP;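 note: growth inhibition of TCC-SUP cells, read out with a cell viability assay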
# Assay: cells
# Assay type: functional, cell-based
# Details: Homo sapiens
# Description: SANGER: Inhibition of human TCCSUP cell growth in a cell viability assay.
row,Compound,IC50
1,CS(=O)(=O)N1CCN(Cc2cc3nc(-c4cccc5[nH]ncc45)nc(N4CCOCC4)c3s2)CC1 [PICTILISIB],> 4 µM

# System: AU565;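 note: cell viability assay measuring growth inhibition of human AU565 cells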
# Assay: cells
# Assay type: functional, cell-based
# Details: Homo sapiens
# Description: SANGER: Inhibition of human AU565 cell growth in a cell viability assay.
row,Compound,IC50
1,CS(=O)(=O)N1CCN(Cc2cc3nc(-c4cccc5[nH]ncc45)nc(N4CCOCC4)c3s2)CC1 [PICTILISIB],1.32 µM

# System: BEN;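 note: growth inhibition of the BEN cell line, read out with a cell viability assay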
# Assay: cells
# Assay type: functional, cell-based
# Details: Homo sapiens
# Description: SANGER: Inhibition of human BEN cell growth in a cell viability assay.
row,Compound,IC50
1,CS(=O)(=O)N1CCN(Cc2cc3nc(-c4cccc5[nH]ncc45)nc(N4CCOCC4)c3s2)CC1 [PICTILISIB],> 4 µM

# System: BFTC-905
# Assay: cells
# Assay type: functional, cell-based
# Details: Homo sapiens
# Description: SANGER: Inhibition of human BFTC-905 cell growth in a cell viability assay.
row,Compound,IC50
1,CS(=O)(=O)N1CCN(Cc2cc3nc(-c4cccc5[nH]ncc45)nc(N4CCOCC4)c3s2)CC1 [PICTILISIB],1.13 µM

# System: TGBC11TKB;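 note: growth inhibition of human TGBC11TKB cells, measured by a cell viability assay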
# Assay: cells
# Assay type: functional, cell-based
# Details: Homo sapiens
# Description: SANGER: Inhibition of human TGBC11TKB cell growth in a cell viability assay.
row,Compound,IC50
1,CS(=O)(=O)N1CCN(Cc2cc3nc(-c4cccc5[nH]ncc45)nc(N4CCOCC4)c3s2)CC1 [PICTILISIB],> 4 µM

# System: UACC-893
# Assay: cells
# Assay type: functional, cell-based
# Details: Homo sapiens
# Description: SANGER: Inhibition of human UACC-893 cell growth in a cell viability assay.
row,Compound,IC50
1,CS(=O)(=O)N1CCN(Cc2cc3nc(-c4cccc5[nH]ncc45)nc(N4CCOCC4)c3s2)CC1 [PICTILISIB],> 4 µM

# System: CFPAC-1;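 note: cell viability readout used to gauge suppression of CFPAC-1 cell proliferation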
# Assay: cells
# Assay type: functional, cell-based
# Details: Homo sapiens
# Description: SANGER: Inhibition of human CFPAC-1 cell growth in a cell viability assay.
row,Compound,IC50
1,CS(=O)(=O)N1CCN(Cc2cc3nc(-c4cccc5[nH]ncc45)nc(N4CCOCC4)c3s2)CC1 [PICTILISIB],> 4 µM

# System: CHP-212
# Assay: cells
# Assay type: functional, cell-based
# Details: Homo sapiens
# Description: SANGER: Inhibition of human CHP-212 cell growth in a cell viability assay.
row,Compound,IC50
1,CS(=O)(=O)N1CCN(Cc2cc3nc(-c4cccc5[nH]ncc45)nc(N4CCOCC4)c3s2)CC1 [PICTILISIB],2.18 µM
